Legend:
[1] = biological target: T1, PDE3 (cGMP-inhibited) in homogenates of human platelets (Homo sapiens, UniProt Q14432); test: PDE3 inhibition, Method A (radioactive PDE assay after Thompson et al.); type: biochemical; conditions: read-out: PDE3 [−log IC50, mol/l] (converted)
T1 construct: investigated in homogenates of human platelets; from tissue; host or cells: homogenates of human platelets
Method: (§1) The PDE activity was determined according to Thompson et al. (Adv Cycl Nucl Res 10: 69-92, 1979) with some modifications (Bauer and Schwabe, Naunyn-Schmiedeberg's Arch Pharmacol 311: 193-198, 1980). The test samples contained 20 mM Tris (pH 7.4), 5 mM MgCl2, 0.5 μM CAMP or cGMP, [^3H]cAMP or [^3H]cGMP (about 30 000 cpm/sample), the PDE isoenzyme-specific additives described in greater detail below, the indicated concentrations of inhibitor and an aliquot of the enzyme solution in a total sample volume of 200 μl. Dilution series of the compounds according to the invention were prepared in DMSO and further diluted in the samples [1:100 (v/v)], to give the desired end concentration of the inhibitors at a DMSO concentration of 1% (v/v), which for its part has only a minute effect on PDE activity.
(§2) After preincubation at 37° C. for 5 minutes, the reaction was started by addition of the substrate (CAMP or cGMP). The samples were incubated at 37° C. for a further 15 min. The reaction was terminated by addition of 50 μl 0.2 N HCl. After cooling on ice for 10 minutes and addition of 25 μg 5′-nucleotidase (snake venom from Crotalus atrox), the mixture was again incubated at 37° C. for 10 min and the samples were then applied to QAE Sephadex A-25 columns (sample volume 1 ml). The columns were eluted with 2 ml of 30 mM ammonium formate (pH 6.0). The radioactivity of the eluate was measured and corrected by the corresponding blank values (measured in the presence of denatured protein); the blank values were less than 5% of the total radioactivity. In no case did the proportion of hydrolyzed nucleotide exceed 30% of the original substrate concentration.
PDE3 (cGMP-inhibited) was investigated in homogenates of human platelets (see Schudt et al., Biochem Pharmacol 1991: 42, 153-162) using CAMP or cGMP as substrate.
(§3) The IC50 values were determined from the concentration-inhibition curves by nonlinear regression.
(§4) The inhibitory values of the compounds 1-16 and 22-24 have been determined according to Method A. The inhibitory values of the compounds 17-21 have been determined according to Method B.

[2] = tested on: PDE4 (cAMP-specific) in the cytosol of human polymorphonuclear leukocytes (PMNL); test: PDE4 inhibition, Method A (radioactive PDE assay after Thompson et al.); type: biochemical; conditions: cAMP substrate, motapizone 1 μM
Method: as §1, §2
PDE4 (cAMP-specific) was investigated in the cytosol of human polymorphonuclear leukocytes (PMNL) [isolated from leukocyte concentrates, see Schudt et al., Arch Pharmacol 1991: 344, 682-690] using cAMP as substrate. The PDE3 inhibitor motapizone (1 μM) was used to suppress the PDE3 activity emanating from contaminated platelets.
as §3, §4

T1 sequence (Q14432 whole entry): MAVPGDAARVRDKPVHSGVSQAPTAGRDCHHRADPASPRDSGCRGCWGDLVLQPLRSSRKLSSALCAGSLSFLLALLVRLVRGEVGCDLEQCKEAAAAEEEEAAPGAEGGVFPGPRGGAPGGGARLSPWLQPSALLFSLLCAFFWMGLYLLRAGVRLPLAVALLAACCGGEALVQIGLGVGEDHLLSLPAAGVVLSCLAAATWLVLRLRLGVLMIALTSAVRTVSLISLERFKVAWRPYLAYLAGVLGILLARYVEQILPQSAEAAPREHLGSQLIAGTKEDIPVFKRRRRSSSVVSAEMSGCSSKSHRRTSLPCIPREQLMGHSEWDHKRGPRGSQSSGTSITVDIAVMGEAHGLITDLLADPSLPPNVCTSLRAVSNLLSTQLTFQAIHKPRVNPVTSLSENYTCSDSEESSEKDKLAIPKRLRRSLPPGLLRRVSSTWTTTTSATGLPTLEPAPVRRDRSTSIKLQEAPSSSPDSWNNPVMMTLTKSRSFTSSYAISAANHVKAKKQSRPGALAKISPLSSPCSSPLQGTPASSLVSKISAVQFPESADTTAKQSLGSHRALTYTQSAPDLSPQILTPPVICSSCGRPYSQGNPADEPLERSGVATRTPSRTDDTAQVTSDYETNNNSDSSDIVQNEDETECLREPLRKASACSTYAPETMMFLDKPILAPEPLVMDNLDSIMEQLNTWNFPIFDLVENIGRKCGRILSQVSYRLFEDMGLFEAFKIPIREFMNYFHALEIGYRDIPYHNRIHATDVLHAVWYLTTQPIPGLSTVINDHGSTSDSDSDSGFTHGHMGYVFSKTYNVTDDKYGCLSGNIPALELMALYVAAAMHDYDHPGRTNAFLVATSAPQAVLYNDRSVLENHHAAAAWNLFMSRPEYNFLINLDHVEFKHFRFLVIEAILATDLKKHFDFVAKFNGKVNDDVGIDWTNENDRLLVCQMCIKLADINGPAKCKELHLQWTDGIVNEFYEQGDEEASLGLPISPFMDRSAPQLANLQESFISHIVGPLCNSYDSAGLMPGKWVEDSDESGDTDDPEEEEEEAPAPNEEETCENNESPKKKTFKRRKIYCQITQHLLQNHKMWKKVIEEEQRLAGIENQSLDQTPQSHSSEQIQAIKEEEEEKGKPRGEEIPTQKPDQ

Compound	IC50 [1] [µM]	PDE4 [−log IC50, mol/l] [2] [mol/l]
CCOc1cc2c(cc1OC)C(c1ccc(C(=O)N(Cc3ccccc3)[C@@H](C)COCc3ccccc3)cc1)=N[C@@H]1CCN(C)C[C@H]21 [Compound 23, N-Benzyl-N-((S)-2-benzyloxy-1-methyl-ethyl)-4-((4aR,10bS)-9-ethoxy-8-methoxy-2-methyl-1,2,3,4,4a,10b-hexahydro-benzo[c][1,6]naphthyridin-6-yl)-benzamide]	0.158	9.5
CCOc1cc2c(cc1OC)C(c1ccc(C(=O)N(CCOC)C(C)C)cc1)=N[C@@H]1CCN(C)C[C@H]21.Cl [Compound 7, 4-((4aR,10bS)-9-Ethoxy-8-methoxy-2-methyl-1,2,3,4,4a,10b-hexahydro-benzo [c][1,6]naphthyridin-6-yl)-N-isopropyl-N-(2-methoxy-ethyl)-benzamide; hydrochloride]	0.0794	8.8
CCOc1cc2c(cc1OC)C(c1ccc(C(=O)N(CC)CCOC)cc1)=N[C@@H]1CCN(C)C[C@H]21.Cl [Compound 5, 4-((4aR,10bS)-9-Ethoxy-8-methoxy-2-methyl-1,2,3,4,4a,10b-hexahydro-benzo [c][1,6]naphthyridin-6-yl)-N-ethyl-N-(2-methoxy-ethyl)-benzamide; hydrochloride]	0.2	8.9
CCOc1cc2c(cc1OC)C(c1ccc(C(=O)N(C)[C@H](COCc3ccccc3)CC(C)C)cc1)=N[C@@H]1CCN(C)C[C@H]21 [Compound 22, N—((S)-1-Benzyloxymethyl-3-methyl-butyl)-4-((4aR,10bS)-9-ethoxy-8-methoxy-2-methyl-1,2,3,4,4a,10b-hexahydro-benzo[c][1,6]naphthyridin-6-yl)-N-methyl-benzamide]	0.0631	9.4
CCOc1cc2c(cc1OC)C(c1ccc(C(=O)N(CCOC)C3CCCCC3)cc1)=N[C@@H]1CCN(C)C[C@H]21.Cl [Compound 12, N-Cyclohexyl-4-((4aR,10bS)-9-ethoxy-8-methoxy-2-methyl-1,2,3,4,4a,10b-hexahydro-benzo [c][1,6]naphthyridin-6-yl)-N-(2-methoxy-ethyl)-benzamide; hydrochloride]	0.158	9.4
CCOc1cc2c(cc1OC)C(c1ccc(C(=O)N(C(C)C)C(C)CCOCc3ccccc3)cc1)=N[C@@H]1CCN(C)C[C@H]21 (mixture of isomers) [Compound 10, N-(3-Benzyloxy-1-methyl-propyl)-4-((4aR,10bS)-9-ethoxy-8-methoxy-2-methyl-1,2,3,4,4a,10b-hexahydro-benzo[c][1,6]naphthyridin-6-yl)-N-isopropyl-benzamide]	0.1	8.9
CCOc1cc2c(cc1OC)C(c1ccc(C(=O)N[C@@H](C)COC)cc1)=N[C@@H]1CCN(C)C[C@H]21.Cl [Compound 2, 4-((4aR,10bS)-9-Ethoxy-8-methoxy-2-methyl-1,2,3,4,4a,10b-hexahydro-benzo [c][1,6]naphthyridin-6-yl)-N-((S)-2-methoxy-1-methyl-ethyl)-benzamide; hydrochloride]	1.58	8.5
CCCN(CCOC)C(=O)c1ccc(C2=N[C@@H]3CCN(C)C[C@@H]3c3cc(OCC)c(OC)cc32)cc1.Cl [Compound 6, 4-((4aR,10bS)-9-Ethoxy-8-methoxy-2-methyl-1,2,3,4,4a,10b-hexahydro-benzo [c][1,6]naphtpyridin-6-yl)-N-(2-methoxy-ethyl)-N-propyl-benzamide; hydrochloride]	0.126	9.2
CCOc1cc2c(cc1OC)C(c1ccc(C(=O)NCCCOC(C)C)cc1)=N[C@@H]1CCN(C)C[C@H]21.Cl [Compound 1]		8.9
CCOc1cc2c(cc1OC)C(c1ccc(C(=O)NC(CC)COC)cc1)=N[C@@H]1CCN(C)C[C@H]21.Cl (mixture of isomers) [Compound 3, 4-((4aR,10bS)-9-Ethoxy-8-methoxy-2-methyl-1,2,3,4,4a,10b-hexahydro-benzo [c][1,6]naphthyridin-6-yl)-N-(1(rac)-methoxymethyl-propyl)-benzamide; hydrochloride]	1	9.0
CCOc1cc2c(cc1OC)C(c1ccc(C(=O)N(CCCOC)C3CCCCC3)cc1)=N[C@@H]1CCN(C)C[C@H]21.Cl [Compound 13, N-Cyclohexyl-4-((4aR,10bS)-9-ethoxy-8-methoxy-2-methyl-1,2,3,4,4a,10b-hexahydro-benzo [c][1,6]naphthyridin-6-yl)-N-(3-methoxy-propyl)-benzamide; hydrochloride]	0.2	9.9
CCOc1cc2c(cc1OC)C(c1ccc(C(=O)N(C(C)C)[C@H](C)COCc3ccccc3)cc1)=N[C@@H]1CCN(C)C[C@H]21 [Compound 8, N—((R)-2-Benzyloxy-1-methyl-ethyl)-4-((4aR,10bS)-9-ethoxy-8-methoxy-2-methyl-1,2,3,4,4a,10b-hexahydro-benzo[c][1,6]naphthyridin-6-yl)-N-isopropyl-benzamide]	0.0316	9.8
CCOCCCNC(=O)c1ccc(C2=N[C@@H]3CCN(C)C[C@@H]3c3cc(OCC)c(OC)cc32)cc1.Cl [Compound 4, 4-((4aR,10bS)-9-Ethoxy-8-methoxy-2-methyl-1,2,3,4,4a,10b-hexahydro-benzo [c][1,6]naphthyridin-6-yl)-N-(3-ethoxy-propyl)-benzamide; hydrochloride]	0.794	8.4
CCOc1cc2c(cc1OC)C(c1ccc(C(=O)N(C)CCOC)cc1)=N[C@@H]1CCN(C)C[C@H]21.Cl [Compound 15, 4-((4aR,10bS)-9-Ethoxy-8-methoxy-2-methyl-1,2,3,4,4a,10b-hexahydro-benzo [c][1,6]naphthyridin-6-yl)-N-(2-methoxy-ethyl)-N-methyl-benzamide; hydrochloride]	0.251	8.0
CCCCOCCCNC(=O)c1ccc(C2=N[C@@H]3CCN(C)C[C@@H]3c3cc(OCC)c(OC)cc32)cc1.Cl [Compound 16, N-(3-Butoxy-propyl)-4-((4aR,10bS)-9-ethoxy-8-methoxy-2-methyl-1,2,3,4,4a,10b-hexahydro-benzo [c][1,6]naphthyridin-6-yl)-benzamide; hydrochloride]	0.398	8.5
CCOc1cc2c(cc1OC)C(c1ccc(C(=O)N(C(C)C)[C@@H](C)COCc3ccccc3)cc1)=N[C@@H]1CCN(C)C[C@H]21 [Compound 9, N—((S)-2-Benzyloxy-1-methylethyl)-4-((4aR,10bS)-9-ethoxy-8-methoxy-2-methyl-1,2,3,4,4a,10b-hexahydro-benzo[c][1,6]naphthyridin-6-yl)-N-isopropyl-benzamide]	0.0158	9.8
CCOc1cc2c(cc1OC)C(c1ccc(C(=O)NCCOC)cc1)=N[C@@H]1CCN(C)C[C@H]21.Cl [Compound 14, 4-((4aR,10bS)-9-Ethoxy-8-methoxy-2-methyl-1,2,3,4,4a,10b-hexahydro-benzo [c][1,6]naphthyridin-6-yl)-N-(2-methoxy-ethyl)-benzamide; hydrochloride]	1	7.8
CCOc1cc2c(cc1OC)C(c1ccc(C(=O)NCCCOC(C)C)cc1)=N[C@@H]1CCN(C)C[C@H]21.Cl [Compound 1, 4-(4aR,10bS)-9-Ethoxy-8-methoxy-2-methyl-1,2,3,4,4a,10b-hexahydro-benzo [c][1,6]naphthyridin-6-yl)-N-(3-isopropoxy-propyl)-benzamide; hydrochloride]	0.631	
CCOc1cc2c(cc1OC)C(c1ccc(C(=O)N[C@@H](C)COCc3ccccc3)cc1)=N[C@@H]1CCN(C)C[C@H]21 [Compound 24, N—((S)-2-Benzyloxy-1-methyl-ethyl)-4-((4aR,10bS)-9-ethoxy-8-methoxy-2-methyl-1,2,3,4,4a,10b-hexahydro-benzo[c][1,6]naphthyridin-6-yl)-benzamide]	0.251	9.0

Source: US7671068B2, “N-(alkoxyalkyl) carbamoyl-substituted 6-phenyl-benzonaphthyridine derivatives and their use as PDE ¾ inhibitors” (NYCOMED GmbH, priority 2004, dated 2010)
